Results taken from PMC10184313, “Inhibition of Thiamine Diphosphate-Dependent Enzymes by Triazole-Based Thiamine Analogues” (ACS Medicinal Chemistry Letters, 2023).
Where two headings read alike, the source gives them in different places.

Tests used:
porcine PDHc E1 = target: T1, porcine PDHc E1 (Sus scrofa, UniProt P29804); assay: PDHc E1 inhibitory activity assay (DCPIP reduction); assay type: biochemical; conditions: for L.E. (ligand efficiency) PDHc E1: binding energy in kcal mol^–1 derived from the KI value per heavy atom
T1 sequence (P29804 31-390): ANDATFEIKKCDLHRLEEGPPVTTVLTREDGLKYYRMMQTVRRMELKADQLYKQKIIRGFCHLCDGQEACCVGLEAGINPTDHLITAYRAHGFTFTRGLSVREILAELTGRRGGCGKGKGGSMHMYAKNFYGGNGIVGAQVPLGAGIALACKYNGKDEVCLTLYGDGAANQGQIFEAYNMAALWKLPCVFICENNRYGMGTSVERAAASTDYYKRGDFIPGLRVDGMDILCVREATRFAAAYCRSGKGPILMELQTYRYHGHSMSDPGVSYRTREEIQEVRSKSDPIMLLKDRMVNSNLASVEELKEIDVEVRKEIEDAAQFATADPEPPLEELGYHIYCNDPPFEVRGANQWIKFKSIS
Description: Enzyme assays – Methods and Results S1
Ligand efficiencies – Calculations S3 […]
Enzyme assays (Methods and Results)
PDHc E1 inhibitory activity assay. Porcine PDHc E1 was purchased from Sigma. Its activity was […]
determined by monitoring 2,6-dichlorophenolindophenol (DCPIP) reduction at 600 nm using a […]
microplate reader (CLARIOstar) and conducted as described 1,2 with some modifications. The percentage inhibition of compounds against porcine PDHc E1 was assayed at a final concentration of 250 µM. The reaction buffer (50 mM KH 2PO4 and 1 mM MgCl 2, pH 7) contained 50 µM ThDP (or 125 µM in the competition assay), 0.25 mM DCPIP, and 2 mg/ml porcine PDHc E1. The reaction mixture […]
was preincubated at 37 °C for 30 min, then the reaction was initiated by adding pyruvate to a final […]
concentration of 50 mM. To determine the half-maximal inhibitory concentration (IC 50 ), ThDP […]
concentration was lowered to 10 µM, and inhibitor concentration was varied (0.4-200 µM). Specific […]
activity was calculated using the molar extinction coefficient of DCPIP, 21 mM -1 cm-1.3 The enzyme […]
IC50 values were calculated from non-linear regression curve fitting using GraphPad Prism.

P. falciparum strain 3D7 = assay: Anti-plasmodial activity assay (SYBR-Safe); assay type: cell-based, Plasmodium falciparum
Description: Next the effects of the thiamine/ThDP analogues on in vitro proliferation of the 3D7 strain of P. falciparum were determined. […] Parasite proliferation was measured by SYBR-Safe assay of parasite DNA.[11],[15]
Cell-based assays (Results)
Anti-plasmodial activity assay. This study used human malaria parasite P. falciparum strain 3D7 (chloroquine-sensitive) and the same strain expressing an extra copy of TPK with a GFP-tag ( PfTPK-GFP) generated as previously described. 9 The intraerythrocytic stage of the parasites were maintained essentially as previously described. 10 Compounds were tested at concentrations up to a highest final […]
were prepared in dimethyl sulfoxide (DMSO) followed by dilution in RPMI 1640 medium in the absence of thiamine or in the presence of 2.97 µM (or 297 µM) thiamine. The final concentration of DMSO that the parasites were exposed to never exceeded 0.05%. Two-fold serial dilutions were then performed, with each concentration tested in triplicate. The assay was performed as described 11 with some modifications. Experiments were initiated with parasites in the ring-stage, a parasitemia level of 0.5% and a haematocrit of 2%. Chloroquine (0.5 µM) was used as the positive control ( i.e. complete inhibition of parasite proliferation), and parasites maintained in the absence of any inhibitor represented 100% parasite proliferation. The final volume in each well was 200 µL. Plates were incubated at 37 °C, under an atmosphere of 96% nitrogen, 3% carbon dioxide and 1% oxygen. Parasite proliferation was measured by performing SYBR-Safe assay. 12 The concentration at which the compound suppresses […]
Excel and analysed by non-linear regression plot using GraphPad Prism. The data were averaged from three independent experiments. […]

A. viridans PO = target: T2, A. viridans PO (Aerococcus viridans, UniProt A9X9K8); assay: A. viridans PO inhibitory activity assay (quinoneimine dye); assay type: biochemical; conditions: for IC50: [ThDP] 50 μM; for Ki: determined according to the KM for ThDP
T2 sequence (A9X9K8 1-592): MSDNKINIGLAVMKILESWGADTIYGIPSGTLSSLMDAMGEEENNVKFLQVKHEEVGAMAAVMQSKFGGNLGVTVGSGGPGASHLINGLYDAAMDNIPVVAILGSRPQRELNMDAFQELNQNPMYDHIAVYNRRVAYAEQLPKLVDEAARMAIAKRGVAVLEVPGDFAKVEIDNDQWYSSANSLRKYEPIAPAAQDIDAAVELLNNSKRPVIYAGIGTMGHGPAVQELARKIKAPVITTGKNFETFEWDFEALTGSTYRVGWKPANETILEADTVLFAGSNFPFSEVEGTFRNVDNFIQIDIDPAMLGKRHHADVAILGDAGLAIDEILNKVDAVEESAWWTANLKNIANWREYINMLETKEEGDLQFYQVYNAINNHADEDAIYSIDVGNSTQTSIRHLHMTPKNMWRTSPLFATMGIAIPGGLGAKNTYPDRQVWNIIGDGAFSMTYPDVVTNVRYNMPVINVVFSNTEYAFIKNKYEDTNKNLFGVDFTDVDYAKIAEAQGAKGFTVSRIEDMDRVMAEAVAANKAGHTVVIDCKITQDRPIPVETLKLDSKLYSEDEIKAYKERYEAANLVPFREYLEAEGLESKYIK
Description: A. viridans PO inhibitory activity assay. A. viridans PO and horseradish peroxidase were purchased from Sigma. A. viridans PO activity was determined by monitoring appearance of quinoneimine dye at 550 nm using a microplate reader (CLARIOstar) and conducted as described 1 with some modifications.
The percentage inhibition of compounds against A. viridans PO was assayed at a final concentration of 250 µM. The reaction buffer (50 mM KH 2PO4 and 10 mM MgCl 2, pH 5.9) contained 50 µM ThDP (or 125 µM in the competition assay), 10 µM flavin adenine dinucleotide (FAD), 0.15% 4-Aminoantipyrine, 0.3% N-Ethyl-N-(2-hydroxy-3-sulfopropyl)-m-toluidine (EHSPT), 50 µg/mL horseradish peroxidase and 0.35 U/mL A. viridans PO. The reaction mixture was preincubated at 37 °C for 30 min, then reaction was initiated by adding pyruvate to a final concentration of 50 mM. To determine the IC 50, inhibitor concentration was varied (2-1000 µM) with ThDP concentration at 50 µM. 1 unit of PO activity is defined as 1 μmol of hydrogen peroxide produced per minute. The enzyme IC 50 values were calculated as described for the PDHc E1 assay. […]

[1] = [Compound] = 250 μM, [ThDP] = 50 μM
[2] = increased ThDP: [Compound] = 250 μM, [ThDP] = 125 μM
[3] = Plasmodium falciparum, 3D7, 3D7, [Thiamine] = 2.97 μM, read-out: IC50 of Suppression of P. falciparum proliferation, [Thiamine] = 2.97 μM
[4] = Plasmodium falciparum, 3D7, 3D7, [Thiamine] = 297 μM, read-out: IC50 of Suppression of P. falciparum proliferation, [Thiamine] = 297 μM
[5] = Plasmodium falciparum, 3D7, 3D7, thiamine-free medium, read-out: IC50 of Suppression of P. falciparum proliferation, Thiamine-free

Compound | Inhibition (%) PDHc E1 (porcine PDHc E1; [1]) | Inhibition (%) PDHc E1 (porcine PDHc E1; [2]) | IC50 (P. falciparum strain 3D7; [3]) | IC50 (P. falciparum strain 3D7; [4]) | IC50 (P. falciparum strain 3D7; [5]) | Inhibition (%) PO (A. viridans PO; [1]) | Inhibition (%) PO (A. viridans PO; [2]) | Ki (porcine PDHc E1) | L.E. (ligand efficiency) PDHc E1 (porcine PDHc E1) | fold more potent than 17c at inhibiting proliferation of the parasites (P. falciparum strain 3D7) | IC50 (P. falciparum strain 3D7; 3D7, thiamine-free medium, read-out: IC50 of Suppression of P. falciparum proliferation, Thiamine-free) | fold more active than 24c (anti-plasmodial) (P. falciparum strain 3D7; thiamine-free culture medium) | IC50 (A. viridans PO) | Ki (A. viridans PO)
COc1ccc(-c2cn(CCCc3cn(Cc4cnc(C)nc4N)nn3)nn2)cc1 [Compound 17b] | 71 ± 2% | 45 ± 3% | 78 ± 8 µM | 82 ± 11 µM | 51 ± 3 µM | < 20% | <20% |  |  |  |  |  |  | 
COc1ccc(-c2cn(CCCCc3cn(Cc4cnc(C)nc4N)nn3)nn2)cc1 [Compound 17c] | > 90% | 82 ± 4% | 62 ± 7 µM | 69 ± 9 µM | 44 ± 2 µM | < 20% | <20% | 0.03 µM | 0.34 |  |  |  |  | 
Cc1ncc(Cn2cc(CCCC(=O)NO)nn2)c(N)n1 [Compound 24b] | > 90% | 70 ± 3% | 1.3 ± 0.2 µM | 1.4 ± 0.4 µM | 0.9 to 3 µM | 35 ± 5% | 27 ± 4% |  | 0.50 | ~50 fold | 0.9 ± 0.1 µM | 3 fold | 202 ± 19 µM | 20.2 µM
Cc1ncc(Cn2cc(CCCCC(=O)NO)nn2)c(N)n1 [Compound 24c] | > 90% | 73 ± 4% | 3.8 ± 2 µM | 4 ± 1.8 µM |  | 42 ± 5% | 24 ± 4% |  | 0.48 |  |  |  | 232 ± 23 µM | 23.2 µM
Cc1ncc(Cn2cc(CCn3cc(-c4ccc(F)cc4)nn3)nn2)c(N)n1 [Compound 16a] | 42 ± 2% | <20% | > 200 µM | > 200 µM | > 200 µM | < 20% | <20% |  |  |  |  |  |  | 
Cc1ncc(Cn2cc(CCCn3cc(-c4ccc(F)cc4)nn3)nn2)c(N)n1 [Compound 16b] | 66 ± 4% | 43 ± 2% | > 200 µM | > 200 µM | > 200 µM | < 20% | <20% |  |  |  |  |  |  | 
COc1ccc(-c2cn(CCc3cn(Cc4cnc(C)nc4N)nn3)nn2)cc1 [Compound 17a] | 46 ± 4% | <20% | 156 ± 13 µM | 169 ± 11 µM | 129 ± 9 µM | < 20% | <20% |  |  |  |  |  |  | 
